Measured values published in ChEMBL document CHEMBL6096723, “Discovery of novel capsaicin analogs as TRPV1 inhibitors for the treatment of idiopathic pulmonary fibrosis” (Eur J Med Chem, 2025).
Active and inactive are the calls of the source. The rule behind the calls is not given here.

Key:
[1] = Acute toxicity in Kunming male mouse assessed as Total bilirubin (T-Bil) level at 180 mg/kg, ip measured after 14 days (reference value: 12.99 micromol/L); format: organism-based; settings: in vivo, 336 h, time 14 day
Mus musculus [2] = test: Anti-pulmonary fibrotic activity against bleomycin-induced pulmonary fibrosis mouse model assessed as inhibition of Smad2 phosphorylation in lung tissue at 10 to 20 mg/kg, ip administered every alternative day for 8 to 21 days after modeling by immunohistochemical staining based assay; format: functional, organism-based; settings: dose 10-20 mg/kg, time 8-21 day
[3] = Half life in Sprague-Dawley rat at 50 mg/kg, ip measured upto 4 hrs by UPLC-MS/MS analysis; format: ADME, organism-based; settings: in vivo
[4] = biological target: Transient receptor potential cation channel subfamily V member 1 (Mus musculus) (UniProt Q704Y3); test: Thermal stabilization of TRPV1 in mouse NIH3T3 cells assessed as reduction in TRPV1 degradation at 60 degreeC measured after 30 mins by CETSA; format: cell-based; settings: dose 1-50 µM
Transient receptor potential cation channel subfamily V member 1 (Mus musculus), sequence (Q704Y3 whole entry): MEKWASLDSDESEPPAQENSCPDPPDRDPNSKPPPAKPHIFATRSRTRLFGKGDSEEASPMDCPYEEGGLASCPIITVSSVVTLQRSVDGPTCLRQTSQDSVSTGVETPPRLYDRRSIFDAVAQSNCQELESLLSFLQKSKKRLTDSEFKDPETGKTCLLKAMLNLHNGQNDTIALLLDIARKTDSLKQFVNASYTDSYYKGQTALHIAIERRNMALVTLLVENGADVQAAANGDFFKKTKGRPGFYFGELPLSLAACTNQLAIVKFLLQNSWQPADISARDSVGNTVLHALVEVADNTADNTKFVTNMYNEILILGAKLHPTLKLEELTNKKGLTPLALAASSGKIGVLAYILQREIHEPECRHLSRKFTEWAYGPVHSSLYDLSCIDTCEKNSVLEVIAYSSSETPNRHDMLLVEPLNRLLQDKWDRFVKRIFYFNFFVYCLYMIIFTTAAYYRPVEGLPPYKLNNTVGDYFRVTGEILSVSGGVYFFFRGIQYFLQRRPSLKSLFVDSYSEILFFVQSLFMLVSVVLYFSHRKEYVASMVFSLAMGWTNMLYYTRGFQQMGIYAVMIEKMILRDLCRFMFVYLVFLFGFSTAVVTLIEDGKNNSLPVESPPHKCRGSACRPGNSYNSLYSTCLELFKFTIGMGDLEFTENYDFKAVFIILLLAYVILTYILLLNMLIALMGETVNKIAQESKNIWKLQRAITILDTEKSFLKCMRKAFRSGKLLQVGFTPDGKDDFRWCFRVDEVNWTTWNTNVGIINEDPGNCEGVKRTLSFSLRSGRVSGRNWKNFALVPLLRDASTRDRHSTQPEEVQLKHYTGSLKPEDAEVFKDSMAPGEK

NIH3T3 [5] = test: Inhibition of TGFbeta-induced ERK1/2 phosphorylation in mouse NIH3T3 cells at 1 to 10 uM by Western blot analysis; format: functional, cell-based; settings: dose 1-10 µM
NIH3T3 [6] = test: Anti-fibrotic activity in mouse NIH3T3 cells assessed as inhibition of TGFbeta-induced total collagen production measured after 48 hrs by Sirius Red Collagen Detection Kit relative to control; format: functional, cell-based; settings: NIH3T3, 48 h
[7] = AUMC(0 to infinity) in Sprague-Dawley rat at 50 mg/kg, po measured upto 4 hrs by UPLC-MS/MS analysis; format: ADME, organism-based; settings: in vivo
Mus musculus [8] = test: Anti-pulmonary fibrotic activity against bleomycin induced pulmonary fibrosis mouse model assessed as reduction in inflammatory cell infiltration at 10 to 20 mg/kg, ip administered every alternative day for 8 to 21 days after modeling; format: functional, organism-based; settings: dose 10-20 mg/kg, time 8-21 day
[9] = biological target: Transient receptor potential cation channel subfamily V member 1 (Mus musculus) (UniProt Q704Y3); test: Thermal stabilization of TRPV1 in mouse NIH3T3 cells assessed as reduction in TRPV1 degradation at 10 uM at 40 to 65 degreeC measured after 30 mins by CETSA; format: cell-based
[10] = biological target: Transient receptor potential cation channel subfamily V member 1 (Homo sapiens) (UniProt Q8NER1); test: Inhibition of TRPV1 (unknown origin) overexpressed in HEK-293T cells assessed as reduction in calcium level measured after 24 hrs by Fluo-4 calcium ion detection kit; format: cell-based
Transient receptor potential cation channel subfamily V member 1 (Homo sapiens), sequence (Q8NER1 whole entry): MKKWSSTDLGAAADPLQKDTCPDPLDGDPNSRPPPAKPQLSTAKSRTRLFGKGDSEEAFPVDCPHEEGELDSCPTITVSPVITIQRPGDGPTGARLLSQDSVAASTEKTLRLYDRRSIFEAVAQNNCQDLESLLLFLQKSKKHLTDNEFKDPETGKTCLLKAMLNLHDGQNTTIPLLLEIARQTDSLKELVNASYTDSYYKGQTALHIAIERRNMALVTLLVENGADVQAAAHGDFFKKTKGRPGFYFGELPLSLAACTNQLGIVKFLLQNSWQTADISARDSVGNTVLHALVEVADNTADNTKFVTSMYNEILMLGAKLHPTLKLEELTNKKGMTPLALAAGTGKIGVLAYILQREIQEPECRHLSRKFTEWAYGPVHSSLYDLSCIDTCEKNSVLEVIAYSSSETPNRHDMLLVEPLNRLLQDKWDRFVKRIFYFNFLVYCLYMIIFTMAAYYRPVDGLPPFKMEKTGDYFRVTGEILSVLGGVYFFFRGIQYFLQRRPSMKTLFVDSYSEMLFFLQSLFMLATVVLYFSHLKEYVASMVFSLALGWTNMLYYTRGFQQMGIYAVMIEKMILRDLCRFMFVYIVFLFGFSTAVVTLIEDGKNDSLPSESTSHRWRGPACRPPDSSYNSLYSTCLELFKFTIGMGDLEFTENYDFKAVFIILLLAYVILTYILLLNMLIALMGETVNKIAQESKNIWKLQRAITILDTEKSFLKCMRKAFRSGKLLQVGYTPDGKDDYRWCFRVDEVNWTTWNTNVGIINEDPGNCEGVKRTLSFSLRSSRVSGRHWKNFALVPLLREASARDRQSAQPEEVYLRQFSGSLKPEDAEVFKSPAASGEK

[11] = Acute toxicity in Kunming male mouse assessed as Lactate dehydrogenase (LDH) level at 180 mg/kg, ip measured after 14 days (reference value: 1776.1 U/L); format: organism-based; settings: in vivo, 336 h, time 14 day
Rattus norvegicus [12] = test: Cz in Sprague-Dawley rat at 50 mg/kg, po measured upto 4 hrs by UPLC-MS/MS analysis; format: ADME, organism-based; settings: in vivo
Mus musculus [13] = test: Anti-fibrotic activity against bleomycin-induced pulmonary fibrosis mouse model assessed as increase in lung compliance at 10 to 20 mg/kg, ip administered every alternative day for 8 to 21 days after modeling; format: functional, organism-based; settings: dose 10-20 mg/kg, time 8-21 day
[14] = Acute toxicity in Kunming mouse assessed as organ lesions in lung at 180 mg/kg, ip measured after 14 days by H and E staining based assay; format: organism-based; settings: in vivo, 336 h, time 14 day
Mus musculus [15] = test: Anti-pulmonary fibrotic activity against bleomycin-induced pulmonary fibrosis mouse model assessed as inhibition of collagen I expression in lung tissue at 10 to 20 mg/kg, ip administered every alternative day for 8 to 21 days after modeling by immunohistochemical staining based assay; format: functional, organism-based; settings: dose 10-20 mg/kg, time 8-21 day
[16] = Acute toxicity in Kunming male mouse assessed as Alanine aminotransferase (ALT) level at 180 mg/kg, ip measured after 14 days (reference value: 55.3 U/L); format: organism-based; settings: in vivo, 336 h, time 14 day
[17] = Acute toxicity in Kunming female mouse assessed as Urea level at 180 mg/kg, ip measured after 14 days (reference value: 5.74 mmol/L); format: organism-based; settings: in vivo, 336 h, time 14 day
NIH3T3 [18] = test: Inhibition of TGFbeta1-induced proliferation of mouse NIH3T3 cells assessed as colony formation at 10 uM measured after 7 to 14 days by Crystal violet staining based assay; format: functional, cell-based; settings: time 7-14 day
NIH3T3 [19] = test: Anti-fibrotic activity in mouse NIH3T3 cells assessed as inhibition of TGFbeta-induced total collagen production at 10 uM measured after 48 hrs by Sirius Red Collagen Detection Kit relative to control; format: functional
[20] = Acute toxicity in Kunming female mouse assessed as Creatinine (CREA) level at 180 mg/kg, ip measured after 14 days (reference value: 15.4 micromol/L); format: organism-based; settings: in vivo, 336 h, time 14 day
[21] = VRT(0 to t) in Sprague-Dawley rat at 50 mg/kg, ip measured upto 4 hrs by UPLC-MS/MS analysis; format: ADME, organism-based; settings: in vivo
[22] = MRT(0 to t) in Sprague-Dawley rat at 50 mg/kg, iv measured upto 4 hrs by UPLC-MS/MS analysis; format: ADME, organism-based; settings: in vivo
NIH3T3 [23] = test: Antifibrotic activity in mouse NIH3T3 cells assessed as decrease in TGFbeta-induced alpha-SMA expression measured after 48 hrs incubation by Western blotting analysis; format: functional, cell-based; settings: dose 1-10 µM
Rattus norvegicus [24] = test: Zeta in Sprague-Dawley rat at 50 mg/kg, ip measured upto 4 hrs by UPLC-MS/MS analysis; format: ADME, organism-based; settings: in vivo
[25] = Clearance in Sprague-Dawley rat at 50 mg/kg, ip measured upto 4 hrs by UPLC-MS/MS analysis; format: ADME, organism-based; settings: in vivo
NIH3T3 [26] = test: Inhibition of TGFbeta-induced Smad2 phosphorylation in mouse NIH3T3 cells by Western blot analysis; format: functional, cell-based; settings: dose 1-10 µM
[27] = Acute toxicity in Kunming female mouse assessed as Aspartate aminotransferase (AST) level at 180 mg/kg, ip measured after 14 days (reference value: 116.2 U/L); format: organism-based; settings: in vivo, 336 h, time 14 day
[28] = Acute toxicity in Kunming male mouse assessed as Albumin (ALB) level at 180 mg/kg, ip measured after 14 days (reference value: 32.6 g/L); format: organism-based; settings: in vivo, 336 h, time 14 day
L929 = test: Anti-migratory activity in mouse L929 cells assessed as inhibition of TGFbeta1-induced migration at 10 uM measured after 24 hrs by Wound healing assay; format: functional, cell-based
Mus musculus [29] = test: Anti-pulmonary fibrotic activity against bleomycin-induced pulmonary fibrosis mouse model assessed as inhibition of alpha-SMA expression in lung tissue at 10 to 20 mg/kg, ip administered every alternative day for 8 to 21 days after modeling by immunohistochemical staining based assay; format: functional, organism-based; settings: dose 10-20 mg/kg, time 8-21 day
Mus musculus [30] = test: Anti-fibrotic activity against bleomycin-induced pulmonary fibrosis mouse model assessed as decrease in hydroxyproline level in lung tissue at 10 to 20 mg/kg, ip administered every alternative day for 8 to 21 days after modeling […]; format: functional, organism-based; settings: dose 10-20 mg/kg, time 8-21 day
Rattus norvegicus [31] = test: Cz in Sprague-Dawley rat at 50 mg/kg, ip measured upto 4 hrs by UPLC-MS/MS analysis; format: ADME, organism-based; settings: in vivo
[32] = MRT(0 to t) in Sprague-Dawley rat at 50 mg/kg, po measured upto 4 hrs by UPLC-MS/MS analysis; format: ADME, organism-based; settings: in vivo
[33] = Acute toxicity in Kunming male mouse assessed as Direct bilirubin (D-Bil) level at 180 mg/kg, ip measured after 14 days (reference value: 6.21 micromol/L); format: organism-based; settings: in vivo, 336 h, time 14 day
[34] = Acute toxicity in Kunming male mouse assessed as Uric acid (UA) level at 180 mg/kg, ip measured after 14 days (reference value: 264.8 micromol/L); format: organism-based; settings: in vivo, 336 h, time 14 day
[35] = Apparent volume of distribution in Sprague-Dawley rat at 50 mg/kg, iv measured upto 4 hrs by UPLC-MS/MS analysis; format: ADME, organism-based; settings: in vivo, read-out: Vz

With O=C(/C=C/c1ccc(O)c(O)c1)CCCCc1ccccc1 the Activity [1] was 10.43 µmol/L, the Activity (Mus musculus [2]) was “Active” and the half-life [3] was 21 min. The Activity [4] was “Dose-dependent-effect”, the inhibition (NIH3T3 [5]) was “Active” and the IC50 (NIH3T3 [6]) was 510 nM. The AUMC [7] was 138.748 ug/L.hr, the Activity (Mus musculus [8]) was “Active” and the Activity [9] was “Active”. For the same molecule, the inhibition [10] was “Active”, the Activity [11] was 2486.8 U/L and the Cz (Rattus norvegicus [12]) was 2.54 µg/L. The Activity (Mus musculus [13]) was “Active”, the Activity [14] was “Non-toxic” and the Activity (Mus musculus [15]) was “Active”. The Activity [16] was 34.5 U/L, the Activity [17] was 6.51 mmol/L and the inhibition (NIH3T3 [18]) was “Active”. The inhibition at 10 µM (NIH3T3 [19]) was 80.7%, the Activity [20] was 16.7 µmol/L and the “VRT(t)” value [21] was 0.53 hr2. The MRT last at 4 h [22] was 44.6 min, the Activity (NIH3T3 [23]) was “Dose-dependent-effect; Compound More Potent Than Nintedanib” and the Activity (Rattus norvegicus [24]) was 1.98. The CL [25] was 305.45 mL/min/kg, the inhibition (NIH3T3 [26]) was “Dose-dependent-effect; Compound Showed Superior Inhibition Effect Than Nintedanib” and the Activity [27] was 160.5 U/L. The Activity [28] was 31.2 g/L, the Activity (L929) was “Active” and the Activity (Mus musculus [29]) was “Active”. The Activity (Mus musculus [30]) was “Active”, the Cz (Rattus norvegicus [31]) was 0.74 µg/L and the MRT last at 4 h [32] was 73.2 min. The Activity [33] was 3.94 µmol/L, the Activity [34] was 325.4 µmol/L and the Vd [35] was 7.17 L/kg.
